“Also recorded” adds a separate entry of the source.
What was measured:
[1] = tested on: microorganisms in Monarch coal, formation water and cell concentrate; settings: 18.0 mM acetate
Experimental: Experiments were conducted to measure the effects of acetate amendments on methane production from samples of carbonaceous materials. The carbonaceous materials used in these experiments were coal samples taken from underground coal beds at the Monarch coal site. […] The cell concentrate consisted of cells from about 6.6 L of formation water added to 15 mL of formation water.
In a first set of samples, the acetate amendment included adding an aqueous sodium acetate solution to the sample bottles to give the samples an 18.0 mM acetate concentration (an average measured concentration). A second set of control samples were prepared in the same manner except for lacking the acetate amendment. Methane levels (measured as a mol. % methane in the headspace of the sample bottle) were periodically measured in both the amendment and control samples over the course of 90 days.

[2] = tested on: methanogenesis in produced water and oil; experiment: Phosphorous compound amendments in oil samples, field in Texas (FIG. 10); assay type: cell-based; settings: 45° C., 14 days, oil from Texas field
Experimental: Produced water and oil samples were collected directly from well heads after passing produced fluids through a portable anaerobic and disinfected oil-water separator. Strict anoxic techniques were used. The water samples were maintained at field temperature prior to use in experiments. Twenty mls of produced water and 0.1 ml of oil were distributed into sterile 36.5 ml serum bottles contained within a disinfected anaerobic glove bag. The anaerobic glove bag contained a filtration apparatus for removing airborne microbial contaminants. […] Incubation temperature was 45° C., the approximate in-situ temperature. Incubation period prior to headspace gas analysis was 14 days. The samples were prepared with the following amendments: […] Final bottle concentration −0.5 mg/L as Phosphorous; (2) Minerals (100× less the stock concentration in Table 2); (3) Metals (300× less the stock concentration in Table 1); (4) Minerals+Metals+Yeast extract (25 mg/L); (5) Minerals+Metals+Vitamins (100× less the stock concentration in appendix 1)+Yeast extract (25 mg/L). In addition, two comparative experiments were run for: […] The experimental bottles were placed into a heated water bath maintained at the field temperature during gas analysis to avoid temperature fluctuations. […] The methane measurements, expressed as the percentage of methane in the headspace above the sample bottles, were plotted in FIG. 10.

[3] = tested on: methanogenesis in Powder River Basin coal and formation water; experiment: Single and multiple nutrient amendments, Powder River Basin coal (FIG. 9); assay type: cell-based; settings: phosphate 5 mg/L, yeast extract about 500 mg/L, BESA about 10 mM
Experimental: Two comparative groups were also measured: (1) Samples of the Power River Basin coal to which no amendments were added (unamended), and (2) Samples of the PRB coal to which bromoethanesulfonic acid (BESA), a known methanogen-specific inhibitor, was added.
The headspace in the bottle above the sample was exchanged with helium.
The amendments were added to the sample bottles until a target concentration of the amendment was reached. […] For the yeast extract only amended, Difco® yeast extract from Becton Dickinson and Company was added to the sample bottles until a concentration of about 500 mg/L was reached.
Finally, for the samples used in the comparative example where methane production from methanogenesis was inhibited, BESA was added to the sample bottles until it reached a concentration of about 10 mM.
Methane production from the samples were measured and plotted as the percentage of methane in the headspace above the liquid in the serum bottle. Three sample bottles were prepared for each amendment, and the methane concentrations were measured in triplicate and averaged.

[4] = tested on: methanogenic consortia; experiment: Enrichment transfer of methanogenic consortia on coal (FIG. 13); assay type: cell-based
Experimental: With the discovery that methanogenic consortia are commonly present in formation waters, a significant research effort, both laboratory and field oriented, was directed at identify methodologies for enhancing their activities in-situ. To this end, methanogenic consortia capable of rapid methanogenesis on coal from the Powder River Basin have been obtained using an enrichment procedure wherein a small volume of an active consortium is added to a “sterile” slurry bottle (in this case, autoclaved Tongue River coal and filter sterilized Tongue River formation water). The consortium is allowed to grow and metabolize, then the dilution series is repeated. This enrichment procedure appears to favor the growth of microorganisms more capable of metabolizing coal to methane. […] Very rapid methanogenesis was observed after the second transfer with rates 57 times greater on average relative to the parent samples (leftmost bars). The two exceptions to the trend were the last two sample sets on the far right of FIG. 13. These were cases in which methanogenesis was inhibited in the parental bottles intentionally with BESA and unintentionally in bottles that received solvent (pyridine) extracts of coal.

[5] = tested on: coal formation in Wyoming's Powder River Basin
Experimental: FIGS. 14A-B show graphs of measurements of methane gas production over time from a coal formation in Wyoming's Powder River Basin before and after an amendment of phosphate and filtered water was introduced to the formation.
The gas well was then treated with an amendment of phosphate and filtered water for about 1.2 months (i.e., late August to early October). The amendment included the introduction of an aqueous solution of 9.5×10^−5 M potassium phosphate to an underground natural gas formation at a rate of about 14,400 L/day for each day of the treatment period. Following the treatment period with the phosphorous amendment, the gas well was sealed for a period of about 2 months (i.e., early October to early December) before the measurements of gas were measured during the post-amendment period (the dwell period).
Then the same phosphorous amendment as described for FIG. 14A was added to the formation for a 1.2 month period (i.e., late August to early October) followed by an approximately 2 month dwell period.

[6] = tested on: microorganism consortia in coal samples
Description: Rollover is a condition where the rate of biogenic methane production starts to plateau as the in situ methane concentration reaches a certain level. In many instances, the rate flattens to zero, and the methane concentration remains constant over time. The rollover point (i.e., the point where the methane concentration begins to break from a monotonically increasing state) can vary between microorganism consortia, but appears to be reached in almost all unamended samples of carbonaceous material that have been examined to date.

[7] = tested on: microorganisms present in the sample (Monarch coal seam coal and formation water); experiment: Biogenic methane generation from Monarch coal samples with hydrogen, phosphorous compound and ammonia amendments; settings: different coal and formation water sample; no ammonium and phosphate amendment
Experimental: Experiments were conducted to compare biogenic methane generation from coal samples after introducing an amendment of hydrogen gas, a phosphorous compound, and ammonia. For each experiment, methane generation from coal samples from the Monarch coal seam in the Powder River Basin in Wyoming was periodically measured over the course of about 627 days. Each anaerobic 5 gram coal sample was placed in a nominal 36.5 ml serum bottle with 15 mL of anaerobic water that was also taken from the formation. The coal and formation water were placed in the serum bottle while working in an anaerobic glove bag. The headspace in the bottle above the sample was flushed with a mixture of N2 and CO2 (95/5).
The methane levels in the headspace above the samples was periodically measured and recorded. The methane was measured by running samples of the headspace gases through a gas chromatograph equipped with a thermal conductivity detector.

[8] = tested on: methanogenesis and acetate production in produced water and oil; experiment: Phosphorous compound amendments in oil samples, field in Montana (FIGS. 11A-B); assay type: cell-based; settings: oil from Montana field
Experimental: Produced water and oil samples were collected directly from well heads after passing produced fluids through a portable anaerobic and disinfected oil-water separator. Strict anoxic techniques were used. The water samples were maintained at field temperature prior to use in experiments.
Twenty mls of produced water and 0.1 ml of oil were distributed into sterile 36.5 ml serum bottles contained within a disinfected anaerobic glove bag. The anaerobic glove bag contained a filtration apparatus for removing airborne microbial contaminants. […] Incubation temperature was 45° C., the approximate in-situ temperature. Incubation period prior to headspace gas analysis was 14 days. The samples were prepared with the following amendments: (1) Sodium phosphate. Final bottle concentration −0.5 mg/L as Phosphorous; (2) Minerals (100× less the stock concentration in Table 2); (3) Metals (300× less the stock concentration in Table 1); (4) Minerals+Metals+Yeast extract (25 mg/L); (5) Minerals+Metals+Vitamins (100× less the stock concentration in appendix 1)+Yeast extract (25 mg/L). […]
The experimental bottles were placed into a heated water bath maintained at the field temperature during gas analysis to avoid temperature fluctuations. […] The methane measurements, expressed as the percentage of methane in the headspace above the sample bottles, were plotted in FIG. 10. […]

Compound: CC(=O)[O-].[Na+] [sodium acetate]
- activation period before methane generation [1]: about 65 days
- methane in the headspace of the sample bottle ([1]; 90th day): over 12 mol. %

Compound: bromoethanesulfonic acid [BESA, reference compound]
- methanogenesis, percentage of methane in headspace [2]: below detection
- methane production, percentage of methane in headspace [3]: did not accumulate
- methanogenesis in parental bottles [4]: inhibited

Compound: O=P(O)(O)O [potassium phosphate]
- natural gas production rate relative to baseline period ([5]; FIG. 14A): about double the average production rate during the baseline period
- natural gas production rate following treatment and dwell periods ([5]; FIG. 14A, 9.5×10^−5 M, about 14,400 L/day for about 1.2 months, about 2 months dwell): over 9 mcf/day
- natural gas production rate following treatment ([5]; FIG. 14B, declining formation): jump in the natural gas product rate
- methane production, percentage of methane in headspace [3]: rates and yields of methanogenesis were highest
- methane level higher than samples without phosphate ([6]; 5 mg/L, after 600 days, FIG. 7): about 43%
- methane level in headspace ([6]; 5 mg/L, after 600 days, FIG. 7): about 4.3 mol. %
- methane concentration over time, rollover ([6]; just over 600 days, FIG. 8): no plateau was observed; also recorded: significantly higher methane levels than samples treated with a minerals amendment or the samples that were unamended

Compound: [HH] [H2, hydrogen]
- effect on coal metabolism to methane [7]: stimulated coal metabolism to methane

Compound: Cl.N [ammonium chloride]
- initial rate of methane production ([6]; 25 mg/L nitrogen, FIG. 7): initially greater than for the unamended samples or samples with other types of amendments
- peak methane level ([6]; 25 mg/L nitrogen, FIG. 7): exceeded the peak plateau levels in the unamended samples
- methane level versus unamended samples / plateau ([6]; about day 600, FIG. 7): about the same as those measured in the unamended samples

Compound: O=P(O)(O)O [sodium phosphate]
- methanogenesis, percentage of methane in headspace [2]: comparable stimulation relative to more complex nutrient mixtures
- rate of methanogenesis ([8]; FIG. 11A): highest rates of methanogenesis
- acetate production ([8]; FIG. 11B): stimulated acetate production relative to the unamended controls
